The source of these data is US20260193271A1, “PAN-KRAS INHIBITOR COMPOUND” (ADLAI NORTYE BIOPHARMA CO., LTD., priority 2022, published 2026).

SMILES strings stand for the structures.

In one assay the test system is AsPC-1 (G12D). The experiment in a line: In vitro cell proliferation inhibition test (CellTiter-Glo), AsPC-1. The class given is cell-based. The settings on record: KRAS (p.G12D), 72 h co-incubation. The procedure, abridged: (§1)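 Cells were seeded at 1000-5000/well by doubling time and cultured overnight at 37 °C, 5% CO2. They were then exposed for 72 h to 10-point, 3-fold compound dilutions (final top 10 μM), and viability was read by CellTiter-Glo luminescence. IC50 came from normalized signals fitted by four-parameter regression.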
(ATP-based viability assays read luminescence as a measure of living cells.)

Another assay deals with SW480 (G12V). Briefly: In vitro cell proliferation inhibition test (CellTiter-Glo), SW480. It is filed as cell-based. The settings on record: SW480 colon cell line, KRAS (p.G12V), 72 h co-incubation. The procedure, abridged: as §1
[1] abbreviates: Homo sapiens, ASPC1, AsPC-1 pancreas cell line.

What is called IC50 is the midpoint of a concentration-inhibition curve. `CCn1c(-c2cc(-c3cnc(CN4CCN(CCOC)CC4)nc3)cnc2[C@H](C)OC)c2c3cc(ccc31)-c1csc(n1)C[C@H](NC(=O)[C@H]1C[C@@H]1C)C(=O)N1CCC[C@H](N1)C(=O)OCC(C)(C)C2` (atropisomer, axis not shown) [Compound 58, (1S,2S)-N-((6^3S,4S,Z)-1^1-ethyl-1^2-(2-((S)-1-methoxyethyl)-5-(2-((4-(2-methoxyethyl)piperazin-1-yl)methyl)pyrimidin-5-yl)pyridin-3-yl)-10,10-dimethyl-5,7-dioxo-6^1,6^2,6^3,6^4,6^5,6^6-hexahydro-1^1H-8-oxa-2(4,2)-thiazola-1(5,3)-indola-6(1,3)-pyridazinacycloundecaphane-4-yl)-2-methylcyclopropane-1-carboximide]: the figures for the concentration for half-maximal inhibition (IC50) in the assay with AsPC-1 (G12D) (setting [1]) and in the assay with SW480 (G12V) (Homo sapiens) were 68 nM and 30 nM, respectively.

Turning to `CCn1c(-c2cc(-c3cnc(N(C)C)nc3)cnc2[C@H](C)OC)c2c3cc(ccc31)-c1csc(n1)C[C@H](NC(=O)[C@H]1C[C@@H]1C)C(=O)N1CCC[C@H](N1)C(=O)OCC(C)(C)C2` (atropisomer, axis not shown) [Compound 59, (1S,2S)-N-((6^3S,4S,Z)-1^2-(5-(2-(dimethylamino)pyrimidin-5-yl)-2-((S)-1-methoxyethyl)pyridin-3-yl)-1^1-ethyl-10,10-dimethyl-5,7-dioxo-6^1,6^2,6^3,6^4,6^5,6^6-hexahydro-1^1H-8-oxa-2(4,2)-thiazola-1(5,3)-indola-6(1,3)-pyridazinacycloundecaphane-4-yl)-2-methylcyclopropane-1-carboxamide], the values for the IC50 in the assay on AsPC-1 (G12D) (setting [1]) and with SW480 (G12V) (Homo sapiens) were 3 nM and 6.2 nM, respectively.

`CCn1c(-c2cc(-c3cnc(OC4CCN(C)CC4)nc3)cnc2[C@H](C)OC)c2c3cc(ccc31)-c1csc(n1)C[C@H](NC(=O)[C@H]1C[C@@H]1C)C(=O)N1CCC[C@H](N1)C(=O)OCC(C)(C)C2` (atropisomer, axis not shown) [Compound 60, (1S,2S)-N-((6^3S,4S,Z)-1^1-ethyl-1^2-(2-((S)-1-methoxyethyl)-5-(2-((1-methylpiperidin-4-yl)oxy)pyrimidin-5-yl)pyridin-3-yl)-10,10-dimethyl-5,7-dioxo-6^1,6^2,6^3,6^4,6^5,6^6-hexahydro-1^1H-8-oxa-2(4,2)-thiazola-1(5,3)-indola-6(1,3)-pyridazinacycloundecaphane-4-yl)-2-methylcyclopropane-1-carboxamide]: the IC50 worked out at 1.6 nM in the assay with AsPC-1 (G12D) (setting [1]) and 12 nM in the assay with SW480 (G12V) (Homo sapiens).

Turning to `CCn1c(-c2cc(-c3cnc(CN4CCN5CCOC[C@@H]5C4)nc3)cnc2[C@H](C)OC)c2c3cc(ccc31)-c1csc(n1)C[C@H](NC(=O)[C@H]1C[C@@H]1C)C(=O)N1CCC[C@H](N1)C(=O)OCC(C)(C)C2` (atropisomer, axis not shown) [Compound 61, (1S,2S)-N-((6^3S,4S,Z)-1^1-ethyl-1^2-(5-(2-(((S)-hexahydropyrazino[2,1-c][1,4]oxazin-8(1H)-yl)methyl)pyrimidin-5-yl)-2-((S)-1-methoxyethyl)pyridin-3-yl)-10,10-dimethyl-5,7-dioxo-6^1,6^2,6^3,6^4,6^5,6^6-hexahydro-1^1H-8-oxa-2(4,2)-thiazola-1(5,3)-indola-6(1,3)-pyridazinacycloundecaphane-4-yl)-2-methylcyclopropane-1-carboxamide], the results for the IC50 in the assay on AsPC-1 (G12D) (setting [1]) and in the assay with SW480 (G12V) (Homo sapiens) were 19 nM and 20 nM, respectively.

Turning to `CCn1c(-c2cc(-c3cnn(C4CCN(C)CC4)c3)cnc2[C@H](C)OC)c2c3cc(ccc31)-c1csc(n1)C[C@H](NC(=O)[C@H]1C[C@@H]1C)C(=O)N1CCC[C@H](N1)C(=O)OCC(C)(C)C2` (atropisomer, axis not shown) [Compound 63, (1S,2S)-N-((6^3S,4S,Z)-1^1-ethyl-1^2-(2-((S)-1-methoxyethyl)-5-(1-(1-methylpiperidin-4-yl)-1H-pyrazol-4-yl)pyridin-3-yl)-10,10-dimethyl-5,7-dioxo-6^1,6^2,6^3,6^4,6^5,6^6-hexahydro-1^1H-8-oxa-2(4,2)-thiazola-1(5,3)-indola-6(1,3)-pyridazinacycloundecaphane-4-yl)-2-methylcyclopropane-1-carboxamide], the results for the 50% inhibitory concentration (IC50) with AsPC-1 (G12D) (setting [1]) and in the assay on SW480 (G12V) (Homo sapiens) were 48 nM and 71 nM, respectively.

In the case of `CCn1c(-c2cc(-c3cnc(CN4CCOCC4)nc3)cnc2[C@H](C)OC)c2c3cc(ccc31)-c1csc(n1)C[C@H](NC(=O)[C@H]1C[C@@H]1C)C(=O)N1CCC[C@H](N1)C(=O)OCC(C)(C)C2` (atropisomer, axis not shown) [Compound 66, (1S,2S)-N-((6^3S,4S,Z)-1^1-ethyl-1^2-(2-((S)-1-methoxyethyl)-5-(2-(morpholinomethyl)pyrimidin-5-yl)pyridin-3-yl)-10,10-dimethyl-5,7-dioxo-6^1,6^2,6^3,6^4,6^5,6^6-hexahydro-1H-8-oxa-2(4,2)-thiazola-1(5,3)-indola-6(1,3)-pyridazinacycloundecaphane-4-yl)-2-methylcyclopropane-1-carboxamide], the figures for the IC50 in the assay on AsPC-1 (G12D) (setting [1]) and in the assay on SW480 (G12V) (Homo sapiens) were 10 nM and 3.4 nM, respectively.

For the molecule `CCn1c(-c2cc(-c3ccc4c(c3)CN(C)C4)cnc2C(C)OC)c2c3cc(ccc31)-c1csc(n1)CC(NC(=O)C1CC1C)C(=O)N1CCCC(N1)C(=O)OCC(C)(C)C2` [Compound 2′, (1S,2S)-N-((6^3S,4S,Z)-1^1-ethyl-1^2-(2-((S)-1-methoxyethyl)-5-(2-methylisoindolin-5-yl)pyridin-3-yl)-10,10-dimethyl-5,7-dioxo-6^1,6^2,6^3,6^4,6^5,6^6-hexahydro-1^1H-8-oxa-2(4,2)-thiazola-1(5,3)-indola-6(1,3)-pyridazinacycloundecaphane-4-yl)-2-methylcyclopropane-1-carboxamide], the half-inhibitory concentration (IC50) with AsPC-1 (G12D) (AsPC-1 pancreas cell line) is 2500 nM; with SW480 (G12V), 820 nM.

With `CCn1c(-c2cc(-c3cccc(CN4CCOCC4)n3)cnc2[C@H](C)OC)c2c3cc(ccc31)-c1csc(n1)C[C@H](NC(=O)C1C[C@@H]1C)C(=O)N1CCC[C@H](N1)C(=O)OCC(C)(C)C2` (stereo partly drawn) [Compound 13, (1S,2S)-N-((6^3S,4S,Z)-1^1-ethyl-1^2-(6′-((S)-1-methoxyethyl)-6-(morpholinomethyl)-[2,3′-bipyridin]-5′-yl)-10,10-dimethyl-5,7-dioxo-6^1,6^2,6^3,6^4,6^5,6^6-hexahydro-1^1H-8-oxa-2(4,2)-thiazola-1(5,3)-indola-6(1,3)-pyridazinacycloundecaphane-4-yl)-2-methylcyclopropane-1-carboxamide], the IC50 with AsPC-1 (G12D) (setting [1]) is 2.5 nM; in the assay on SW480 (G12V) (Homo sapiens), 2 nM.

In the case of `CCn1c(-c2cc(-c3ncc(CN4CCOCC4)cn3)cnc2[C@H](C)OC)c2c3cc(ccc31)-c1csc(n1)C[C@H](NC(=O)C1C[C@@H]1C)C(=O)N1CCC[C@H](N1)C(=O)OCC(C)(C)C2` (stereo partly drawn) [Compound 14, (1S,2S)-N-((6^3S,4S,Z)-1^1-ethyl-1^2-(2-((S)-1-methoxyethyl)-5-(5-(morpholinomethyl)pyrimidin-2-yl)pyridin-3-yl)-10,10-dimethyl-5,7-dioxo-6^1,6^2,6^3,6^4,6^5,6^6-hexahydro-1^1H-8-oxa-2(4,2)-thiazola-1(5,3)-indola-6(1,3)-pyridazinacycloundecaphane-4-yl)-2-methylcyclopropane-1-carboxamide], the half-maximal inhibitory concentration (IC50) amounted to 1.7 nM in the assay with AsPC-1 (G12D) (setting [1]) and 2.8 nM with SW480 (G12V) (Homo sapiens).
